The structures appear in SMILES notation. “And” between values parts separate entries of the source, which are not always exact repeats. Equal entries are not always repeated. Where two headings read alike, the source gives them in different places.

One test deals with castration-resistant PCa. Description: Clinical trial of second-line intermittent AA therapy (NCT02415621). It counts as in vivo, human. The text has this:
Prior theoretical, pre-clinical, and clinical studies have questioned the utilization of MTD treatment in non-curative settings. That is, continuous MTD treatment fails to consider the evolutionary dynamics of treatment presponse, where competition, adaptation and selection between treatment sensitive and resistant cells contribute to therapy failure. In fact, this strategy, by maximally selecting for resistant phenotypes and eliminating other competing populations, may actually accelerate the emergence of resistant populations—a well-studied evolutionary phenomenon termed “competitive release.” In part to address this issue, prior trials have used an intermittent on- and off-ADT (IADT) to reduce toxicity and delay time to progression (TTP). […]
Survival benefits have not been confirmed clinically, which can be due to the conservative trial designs of long on-treatment cycles (7-8 months) and short off-cycles. […] PSA values can be monitored every four weeks as done in the clinic. […] For Patient 36, relative PSA values of 50% or 90% of pre-treatment PSA levels as triggers to pause IADT and pre-treatment PSA levels to resume IADT yield longer TTP than the static triggers (PSA monitored every 4 weeks, IADT is paused if PSA<4 ng/mL for consecutive 36 weeks, and IADT resumes if PSA>10 ng/mL). […]

Test [1] relates to metastatic castration resistant prostate cancer (mCRPC). Particulars: cited from earlier work.
The next test relates to advanced prostate cancer. Particulars: patients with advanced prostate cancer; cited from earlier work.
The next test concerns PCa. The settings on record: cited from earlier work.
A further test deals with hormone-refractory PCa. The settings on record: docetaxel added at end of ADT; cited from earlier work.
The test system of a further test is PCaSC. Particulars: cited from earlier work.
In test [2] the test system is metastatic, hormone-sensitive PCa. Particulars: cited from earlier work.
The mark [3] stands for this setting: abiraterone plus gonadotropin-releasing hormone analog, AA-302 trial.
[4] abbreviates: docetaxel plus ADT, added at beginning of hormone therapy.

Take `CC(=O)O[C@H]1CC[C@@]2(C)C(=CC[C@@H]3[C@@H]2CC[C@]2(C)C(c4cccnc4)=CC[C@@H]32)C1` [abiraterone acetate]: the “median TTP” value with castration-resistant PCa (continuous MTD AA) is listed as 13 months. Also, the “median TTP” value with castration-resistant PCa (intermittent AA therapy, median not reached) is given as “at least 33 months”. Further, in test [1] (setting [3]), the PSA response rate is reported as 62% and the “median time to progression” value was 11.1 months. Moreover, in test [1] (second-line hormone therapy), the “overall survival compared to prednisone or placebo” value was “prolong overall survival”.
Consider `CC(=O)O[C@@]12CO[C@@H]1C[C@H](O)[C@@]1(C)C(=O)[C@H](O)C3=C(C)[C@@H](OC(=O)[C@H](O)[C@@H](NC(=O)OC(C)(C)C)c4ccccc4)C[C@@](O)([C@@H](OC(=O)c4ccccc4)[C@H]21)C3(C)C` [docetaxel], for which, in the test with advanced prostate cancer, the Total tumor regression rate (δS+δC), median is 0.015 day⁻¹ and the Total tumor regression rate (δS+δC), range is 0.006 to 0.032 day⁻¹. Moreover, in the test on PCa (docetaxel added at beginning of long-term hormone therapy), the “increase in overall survival time compared to ADT alone” value is recorded as 10-13 months. For the same compound, in the test on PCa (setting [4]), the TTP was 20.2 months; the overall survival time is 81 months and 57.6 months. Also, in the test with hormone-refractory PCa, the increase in survival is reported as 2.4 months and the survival was 18.9 months. Besides, the “PCaSC docetaxel sensitivity as share of PCaC sensitivity” value with PCaSC is given as “about 25%”. For the same compound, the survival benefit result in test [2] (CHAARTED trial, LVD patients) is on record as “no statistically significant survival benefit”. Moreover, the overall survival benefit result in test [2] (CHAARTED trial, patients with HVD) is listed as “statistically significant overall survival benefit”. Moreover, the “increase in overall survival” value in test [2] (GETUG-AFU15, high volume disease (HVD), DOC with continuous ADT, non-significant) is given as 20%. In addition, the survival benefit result in test [2] (GETUG-AFU15, low volume disease (LVD)) is listed as “no survival benefit”. Also, the overall survival benefit result in test [2] (STAMPEDE trial, median follow-up of 43 months) is listed as “more than 12 months”.

The record behind these values is patent US20230005594A1, “CLINICAL DECISION SUPPORT FOR PERSONALIZED ADAPTIVE PROSTATE CANCER THERAPY” (H. LEE MOFFITT CANCER CENTER AND RESEARCH INSTITUTE, INC., priority 2019, published 2023).
